# From patent US20060058383A1 (priority 2004, published 2006)
# Legend:
# [1] = Stability of neutral drug solution on storage
# HL-60/AR cells [2] = assay: Combination cytotoxicity in multi drug resistant cells, annexin-V/PI assay 24 h; format: cell-based, human; settings: multi drug resistant HL-60/AR cells
# HL-60/AR cells [3] = assay: MTT cytotoxicity, drug-resistant clone versus parental cells; format: cell-based, human; settings: MTT assay
# Experimental: HL-60 cell line and its drug-resistant clone HL-60/AR were incubated with the indicated concentrations of doxorubicin, vincristine, and 3-BrPA for 72 h. Cytotoxicity was measured by MTT assay. […] Based on the teachings provided herein, studies may be performed to determine the sensitivity of HL-60/AR cells to Glycolycin.
# Ara-C, a drug commonly used in the frontline treatment of leukemia, was used in parallel experiments. Cytotoxicity was measured by MTT assay.
# HL-60 cells [4] = assay: MTT assay, in vitro cytotoxic activity before and after storage of drug solutions; format: cell-based, human; settings: pH 7.0, 72 h drug incubation
# [5] = tested on: human leukemia HL-60 cell line; assay: Depletion of cellular ATP pool (PCA extraction, HPLC); format: cell-based; settings: 12 h incubation; HL-60
# Experimental: (§1) Cells were incubated with the indicated concentrations of S-Glycolycin or 3-BrPA for 12 h. Cellular ATP was extracted by 0.4 N PCA, neutralized with KOH, and quantified by HPLC analysis. […] Incubation of cells with 0.03 mM S-Glycolycin completely depleted cellular ATP in both cell lines, while it required a 10-fold greater concentration (0.3 mM) of 3-BrPA to achieve the same degree of ATP depletion.
# [6] = tested on: human colon cancer (HCT116) cells; assay: Sensitivity under hypoxic versus normoxic conditions, annexin-V/PI assay; format: cell-based
# Excerpt: (§2) Cancer cells in solid tumors have to adapt to the hypoxia environment due to insufficient blood supply. Under hypoxia conditions, cancer cells use the glycolytic pathway to generate ATP without consuming oxygen. This metabolic adaptation also renders cancer cells relatively resistant to anticancer agents and radiation therapy, partially due to up-regulation of expression of cell survival factors such as HIF-1α. […] However, because under hypoxia condition cancer cells dependent on glycolysis for generation of ATP, it is contemplated that such cancer cells are vulnerable to glycolytic inhibition by Glycolycin. […] Thus, it is envisioned that Glycolycin can be use for effective treatment of many solid tumors, either as a single agent or in combination with other anticancer agents.
# [7] = tested on: respiration-deficient subclone HL-60/C6F cells; assay: Depletion of cellular ATP pool (PCA extraction, HPLC); format: cell-based, human; settings: 12 h incubation
# Experimental: as §1
# [8] = tested on: respiration-deficient clones HL-c6/ρ^0-C6F and Raji-C6; assay: Cytotoxicity in respiration-deficient clones, annexin-V/PI and colony formation; format: cell-based, human
# Experimental: Initial studies have been performed to test the sensitivity of respiration-competent leukemia cells (parental HL-60) and lymphoma cells (parental Raji) in comparison with their respiration-deficient clones HL-c6/ρ^0-C6F and Raji-C6. The mitochondria-defect cell lines were established by the present inventors and others (Pelicano et al., 2003). Cells were incubated with the indicated concentrations of 3-BrPA, and cytotoxicity was measured by two different assays: annexin-V/PI staining and colony formation assay.
# HL-60 cells [9] = assay: Induction of apoptosis, annexin-V/PI flow cytometry; format: cell-based, human; settings: 30 μM; 24 h
# Experimental: HL-60 cells were incubated with the indicated concentrations of S-Glycolycin or 3-BrPA for 24 h. Apoptosis was measured by double staining with annexin-V and PI, followed by flow cytometry analysis. […] Incubation of HL-60 cells with 30 μM of S-Glycolycin caused more 90% cells to undergo apoptosis in 24 h, whereas the same concentration of 3-BrPA killed less than 20% of the cells within the same time period.
# [10] = tested on: human lymphoma cells (Raji); assay: Apoptosis, annexin-V/PI flow cytometry; format: cell-based
# Excerpt: Because the mTOR pathway plays an important role in promoting cellular nutrient metabolism and cell growth, and function to enhance cell survival downstream of the P13K/Akt pathway, the present inventors postulated that a simultaneous inhibition of mTOR and glycolysis, which serve as a major metabolic pathway for ATP generation in cancer cells, would severely impact cellular energy metabolism and have a potent cytotoxic effect against malignant cells. To test this possibility, rapamycin was used as an agent to inhibit mTOR, and glycolycin (3-bromo-2-oxopropionate, abbreviated herein as 3-BrOP) to inhibit glycolysis.
# (§3) Cell growth inhibition was determined by direct counting of the cells after they were treated with rapamycin, 3-BrOP, or their combination. A Coulter Z2 Particle Count & Size Analyzer was used to determine cell counts at 24 h, 48 h, and 72 h after drug incubation. Apoptosis was measured by flow cytometric analysis of cells stained with annexin V-FITC and propidium iodide (PI). Cells were treated with the indicated compounds under various incubation conditions as described in the figure legends. The samples were collected, washed with cold PBS, and then suspended in annexin-V binding buffer. The cells were stained with annexin V-FITC for 15 min at room temperature, washed, and then stained with PI. The samples were analyzed using a FACSCalibur flow cytometer equipped with CELLQuestPro software (Becton-Dickinson, San Jose, Calif.).
# [11] = tested on: HL-60 cells with high Bcl-2 expression; assay: MTT growth inhibition of Bcl-2 transfected cells; format: cell-based, human; settings: MTT assay
# Experimental: Cell growth inhibition was measured by MTT assay.
# Increased expression of the anti-apoptotic molecule Bcl-2 has been associated with drug resistance in cancer cells. The over-expression of Bcl-2 in HL-60 cells was […] against the cytotoxic effect of S-Glycolycin. […] Thus, Glycolycin may be used to overcome drug resistance due to Bcl-2 over expression.
# [12] = tested on: human lymphoma cells (Raji); assay: Sensitivity under hypoxic versus normoxic conditions, annexin-V/PI assay 24 h; format: cell-based; settings: 0.3 μM
# Experimental: (Annexin-V/PI assay, 24 h)
# as §2
# Raji cells [13] = assay: Cellular glucose uptake, [3H]-2-deoxyglucose; format: cell-based, human; settings: 100 ng/ml for 20 h
# Experimental: After the samples were washed three times with cold PBS, the radioactivity in the cell pellets was quantified by liquid scintillation counting. […] Intracellular nucleotides were extracted from the cells with 0.4 N of perchloric acid (PCA) for 10 min in ice-bath, neutralization with concentrated KOH to pH 7.0, and analyzed by HPLC analysis as described previously (Xu et al., 2005; Seymour et al., 1996). The intracellular ATP contents were calculated using the ATP standard curve generated under identical HPLC conditions, and normalized by equal cell number. The relative cellular ATP levels were expressed as percent of the control cells.
# Raji cells [14] = assay: Cell growth by direct cell counting (Coulter Z2); format: cell-based, human; settings: 100 ng/ml alone; up to 72 h
# Experimental: A different assay was then used to further confirm the synergy between rapamycin and 3-BrOP. Raji cells were treated with 30 μM 3-BrOP, 100 ng/ml rapamycin, or their combination, and the numbers of cells were directly counted for consecutive 3 days, using a Coulter Z2 Particle Count & Size Analyzer.
# as §3
smiles,measurement,setting,value
"O=C(O)C(=O)CBr [3-BrPA, 3-bromo-2-oxopropionic acid, reference compound]",activity of solution after storage,[1]; kept at 4° C. for 3 weeks,substantial loss of activity
same,stability of solution at neutral pH,"[1]; pH 7.0, kept at 4° C.",discoloration
same,effect of combination with ara-C or doxorubicin on cytotoxic activity,HL-60/AR cells [2],significantly enhance the cytotoxic activity
same,sensitivity of HL-60/AR compared to parental HL-60 cells,HL-60/AR cells [3],equally sensitive
same,% Cell Survival,"HL-60 cells [4]; 5 μM, fresh drug solution",99.8 ± 1.9%
same,% Cell Survival,"HL-60 cells [4]; 10 μM, drug stored for 3 weeks at 4° C.",70.0 ± 9.8%
same,% Cell Survival,"HL-60 cells [4]; 10 μM, fresh drug solution",59.2 ± 4.1%
same,% Cell Survival,"HL-60 cells [4]; 30 μM, drug stored for 3 weeks at 4° C.",87.0 ± 23%
same,% Cell Survival,"HL-60 cells [4]; 30 μM, fresh drug solution",3.0 ± 1.4%
same,% Cell Survival,"HL-60 cells [4]; 100 μM, drug stored for 3 weeks at 4° C.",2.3 ± 0.3%
same,% Cell Survival,"HL-60 cells [4]; 100 μM, fresh drug solution",2.5 ± 0.8%
same,concentration that completely depleted cellular ATP,[5],0.3 mM
same,sensitivity under hypoxic versus normoxic conditions,[6],significantly more sensitive
same,concentration that completely depleted cellular ATP,[7],0.3 mM
same,sensitivity of mitochondria-defect cells compared to parental cells,[8],more sensitive
same,cells undergoing apoptosis,HL-60 cells [9],less than 20%
Nc1ccn([C@@H]2O[C@H](CO)[C@@H](O)[C@@H]2O)c(=O)n1 [ara-C],sensitivity of HL-60/AR compared to parental HL-60 cells,HL-60/AR cells [3],moderately resistant
same,"apoptosis, % of the cells","[10]; concentration range of 0.5-1 μM, 30 h",20-35%
same,sensitivity of Bcl-2 transfected cells compared to transfected control (Neo),[11],reduced sensitivity
COc1cccc2c1C(=O)c1c(O)c3c(c(O)c1C2=O)C[C@@](O)(C(=O)CO)C[C@@H]3O[C@H]1C[C@H](N)[C@H](O)[C@H](C)O1 [doxorubicin],sensitivity of HL-60/AR compared to parental HL-60 cells,HL-60/AR cells [3],highly resistant
same,sensitivity under hypoxic versus normoxic conditions,[12],slightly reduced
same,sensitivity of Bcl-2 transfected cells compared to transfected control (Neo),[11],reduced sensitivity
same,sensitivity under hypoxic versus normoxic conditions,[6],reduced
"CO[C@H]1C[C@@H]2CC[C@@H](C)[C@@](O)(O2)C(=O)C(=O)N2CCCC[C@H]2C(=O)O[C@H]([C@H](C)C[C@@H]2CC[C@@H](O)[C@H](OC)C2)CC(=O)[C@H](C)/C=C(\C)[C@@H](O)[C@@H](OC)C(=O)[C@H](C)C[C@H](C)/C=C/C=C/C=C/1C [rapamycin, reference compound]",decrease in glucose uptake,Raji cells [13],6%
same,apoptosis,[10]; 100 ng/ml alone,4.8%
same,decrease in cell numbers,Raji cells [14],~35%
CC[C@]1(O)C[C@H]2CN(CCc3c([nH]c4ccccc34)[C@@](C(=O)OC)(c3cc4c(cc3OC)N(C=O)[C@H]3[C@@](O)(C(=O)OC)[C@H](OC(C)=O)[C@]5(CC)C=CCN6CC[C@]43[C@@H]65)C2)C1 [vincristine],sensitivity of HL-60/AR compared to parental HL-60 cells,HL-60/AR cells [3],highly resistant
